Literature values in patent US20040005368A1, “Novel approach to weight loss comprising a modified protein composition that regulates blood sugar in conjunction with compositions that increase oxygen uptake and suppress appetite” (priority 2002, published 2004).

Conditions: group of animals

Compound	loss in body weight	loss in body fat [%]
Cn1c(=O)c2c(ncn2C)n(C)c1=O [caffeine]	no significant loss in body weight	
CN[C@@H](C)[C@H](O)c1ccccc1 [ephedrine]	14%	42
